Turning to `*C#C/C(COS(=O)(=O)c1ccc(C)cc1)=C(/*)COS(=O)(=O)c1ccc(C)cc1` (repeat unit), the glass transition temperature is -73.00 °C.

Take `*C(=O)c1ccc(Oc2ccc(C3(c4ccc(Oc5ccc(*)s5)cc4)c4ccccc4-c4ccccc43)cc2)cc1` (repeat unit): the glass transition temperature came to 195.00 °C.

The compound `*OP(=O)(Oc1ccc(Br)cc1)Oc1c(Br)cc(C(c2cc(Br)c(*)c(Br)c2)(C(F)(F)F)C(F)(F)F)cc1Br` (repeat unit) returned a glass transition temperature of 152.00 °C.

With `*OP(=O)(Oc1ccc(C)cc1)Oc1c(C)cc(S(=O)(=O)c2cc(C)c(*)c(C)c2)cc1C` (repeat unit), the glass transition temperature was 128.00 °C.

`*OP(=O)(Oc1ccc([N+](=O)[O-])cc1)Oc1c(Br)cc(C(c2cc(Br)c(*)c(Br)c2)(C(F)(F)F)C(F)(F)F)cc1Br` (repeat unit) displayed a glass transition temperature of 154.00 °C.

Turning to `*OP(=O)(Oc1ccccc1)Oc1c(Br)cc(C(c2cc(Br)c(*)c(Br)c2)(C(F)(F)F)C(F)(F)F)cc1Br` (repeat unit), the glass transition temperature was 140.00 °C.

Regarding `*O[Si](*)(C)CCCCCCCCCCC(=O)Oc1ccc(-c2ccc(OC(=O)c3ccc(OCC)cc3)cc2)cc1` (repeat unit), the glass transition temperature worked out at 103.40 °C.

Consider `*O[Si](*)(C)CCCCCCCCCCC(=O)Oc1ccc(-c2ccc(OC(=O)c3ccc(OCCCCCCC)cc3)cc2)cc1` (repeat unit), for which the glass transition temperature came out at 61.10 °C.

Consider `*O[Si](*)(C)CCCCCCCCCCC(=O)Oc1ccc(C(=O)Oc2ccc(-c3ccc(OC(=O)CCCCC(=O)OC4CC(C)CCC4C(C)C)cc3)cc2)cc1` (repeat unit), for which the glass transition temperature turned out to be 32.40 °C.

Turning to `*O[Si](*)(C)CCCCCCCCCCC(=O)Oc1ccc(OC(=O)c2ccc(OCC(C)CC)cc2)cc1` (repeat unit), the glass transition temperature turned out to be 13.40 °C.

For `*O[Si](*)(C)CCCCCCCCCCCOc1ccc(-c2ccc(C(=O)Oc3ccc(C(=O)OC(C)C(=O)OC(C)C(=O)OCC(C)CC)cc3)cc2)cc1` (repeat unit), the glass transition temperature worked out at 20.00 °C.

In turn, `*O[Si](*)(C)CCCCCCCCCCCOc1ccc(/C=C/c2ccc(C#N)cc2)cc1` (repeat unit) came in with a glass transition temperature of -55.00 °C.

In the case of `*O[Si](*)(C)CCCCCCCCCCCOc1ccc(/C=C/c2ccc(OC)cc2)cc1` (repeat unit), the glass transition temperature amounted to 55.00 °C.

`*O[Si](*)(C)CCCCCCOc1ccc(-c2ccc(C#N)cc2)cc1` (repeat unit) showed a glass transition temperature of 10.00 °C.

Take `*O[Si](*)(C)CCCCCCOc1ccc(C(=O)Oc2ccc(C(=O)OCC(C)CC)cc2)cc1` (repeat unit): the glass transition temperature was -9.00 °C.

Regarding `*O[Si](*)(C)CCCCCOc1ccc(/C=C/c2ccc(OC)cc2)cc1` (repeat unit), the glass transition temperature is 52.00 °C.

For `*O[Si](*)(C)CCCCCn1c2ccccc2c2ccccc21` (repeat unit), the glass transition temperature was determined as 7.00 °C.

For `*O[Si](*)(C)CCCOC(=O)c1cc(OC(=O)c2ccc(OCCOCCOCCOCCOCCOCCOC)cc2)ccc1OC(=O)c1ccc(OCCOCCOCCOCCOCCOCCOC)cc1` (repeat unit), the glass transition temperature is -46.00 °C.

As for `*O[Si](*)(C)CCCOCCOCCOC` (repeat unit), the glass transition temperature was -90.10 °C.

Compound `*O[Si](*)(C)CCCOCCOCCOCCOC` (repeat unit) yielded a glass transition temperature of -64.21 °C.

The compound `*O[Si](*)(C)CCCOCCOCCOc1ccc(COc2ccc3cc(C#N)ccc3c2)cc1` (repeat unit) registered a glass transition temperature of 30.00 °C.

With `*O[Si](*)(C)CCCOc1ccc(C(=O)OCCOc2ccc(C(=O)OC3CCC4(C)C(=CCC5C4CCC4(C)C(C(C)CCCC(C)C)CCC54)C3)cc2)cc1` (repeat unit), the glass transition temperature came to 42.00 °C.

In the case of `*O[Si](*)(C)CCCOc1ccc(C(=O)Oc2ccc(-c3ccc(OC(=O)c4cc(OCCCCCCCCCCCC)c(OCCCCCCCCCCCC)c(OCCCCCCCCCCCC)c4)cc3)cc2)cc1` (repeat unit), the glass transition temperature amounted to 48.00 °C.

Turning to `*O[Si](*)(C)CCCOc1ccc(C(=O)Oc2ccc(OC(=O)CCCCC(=O)OC3CC(C)CCC3C(C)C)cc2)cc1` (repeat unit), the glass transition temperature is 45.30 °C.

`*O[Si](*)(C)CCc1cc(-c2nnc(-c3ccc(OCCCCCCCCCCCC)cc3)o2)ccc1-c1nnc(-c2ccc(OCCCCCCCCCCCC)cc2)o1` (repeat unit) came in with a glass transition temperature of 156.00 °C.

For the compound `*O[Si](*)(C)CCc1cc(C(=O)Oc2ccc(OCCCCCCCCCCCC)cc2)ccc1-c1ccc(C(=O)Oc2ccc(OCCCCCCCCCCCC)cc2)cc1` (repeat unit), the glass transition temperature is 76.00 °C.

Regarding `*O[Si](*)(C)OCCCCCCCCCCCOc1ccc(C2COC(c3ccc(OCC(C)CC)cc3)OC2)cc1` (repeat unit), the glass transition temperature was determined as 30.00 °C.

Regarding `*O[Si](*)(C)OCCOCCOCCOC` (repeat unit), the glass transition temperature is -120.10 °C.

`*O[Si](*)(C)OCCOCCOCCOCCOCCOCCOCCOCCOC` (repeat unit) registered a glass transition temperature of -78.00 °C.

Compound `*O[Si](*)(C)c1c(F)c(F)c(F)c(F)c1F` (repeat unit) showed a glass transition temperature of -25.00 °C.

Compound `*O[Si](*)(C)c1ccccc1` (repeat unit) showed a glass transition temperature of -28 °C.

For the compound `*O[Si](*)(CC)CC` (repeat unit), the glass transition temperature is -139.00 °C.

`*O[Si](*)(CCCOCCOC)CCCOCCOC` (repeat unit) yielded a glass transition temperature of -55.00 °C.

As for `*O[Si](*)(CCCOCCOCCOC)CCCOCCOCCOC` (repeat unit), the glass transition temperature is -63.40 °C.

For `*O[Si](*)(CCCOCCOCCOCCOCCOCCOC)CCCOCCOCCOCCOCCOCCOC` (repeat unit), the glass transition temperature is -69.70 °C.

`*O[Si](*)(c1ccccc1)c1ccc(OC(C)(C)C)cc1` (repeat unit) displayed a glass transition temperature of 56.00 °C.

Compound `*Oc1c(-c2ccccc2)cc(*)cc1-c1ccccc1-c1ccccc1` (repeat unit) returned a glass transition temperature of 211.00 °C.

`*Oc1c(Br)cc(C(c2cc(Br)c(OC(*)=O)c(Br)c2)(C(F)(F)F)C(F)(F)F)cc1Br` (repeat unit) had a glass transition temperature of 206.00 °C.

`*Oc1c(Br)cc(S(=O)(=O)c2cc(Br)c(OC(*)=O)c(Br)c2)cc1Br` (repeat unit) yielded a glass transition temperature of 196.00 °C.

In turn, `*Oc1c(C)cc(*)cc1C(C)CCCC` (repeat unit) yielded a glass transition temperature of 85.00 °C.

Consider `*Oc1ccc(C2(c3ccc(Oc4ccc(C(=O)C(=O)c5ccc(*)cc5)cc4)cc3)c3ccccc3-c3ccccc32)cc1` (repeat unit), for which the glass transition temperature stood at 242.00 °C.

The compound `*Oc1ccc(C2(c3ccc(Oc4ccc(C(=O)c5ccc(*)cc5)cc4)cc3)c3ccccc3-c3ccccc32)cc1` (repeat unit) gave a glass transition temperature of 252.00 °C.

With `*Oc1ccc(C2(c3ccc(Oc4ccc(C(=O)c5ccc(C(=O)c6ccc(*)c(C(F)(F)F)c6)cc5)cc4C(F)(F)F)cc3)c3ccccc3-c3ccccc32)cc1` (repeat unit), the glass transition temperature worked out at 229.00 °C.

Compound `*Oc1ccc(C2(c3ccc(Oc4ccc(C(=O)c5ccc(Oc6ccc(C(=O)c7ccc(*)cc7)cc6)cc5)cc4)cc3)c3ccccc3-c3ccccc32)cc1` (repeat unit) had a glass transition temperature of 231.00 °C.

(Values after the PolyMetriX glass transition set.)
